Legend:
[1] = biological target: T-cell surface glycoprotein CD4 (Homo sapiens, UniProt P01730); experiment: Inhibition of FITC-tagged human CD4 expressed in human SUP-T1 cells after 72 hrs by FACS analysis; type: cell-based
Sortilin = biological target: T1, Sortilin (Homo sapiens, UniProt Q99523); experiment: Inhibition of GFP-tagged Sortilin (unknown origin) expressed in HEK293T cells after 42 hrs by FACS analysis; type: cell-based, HEK-293T
T1 sequence (Q99523 whole entry): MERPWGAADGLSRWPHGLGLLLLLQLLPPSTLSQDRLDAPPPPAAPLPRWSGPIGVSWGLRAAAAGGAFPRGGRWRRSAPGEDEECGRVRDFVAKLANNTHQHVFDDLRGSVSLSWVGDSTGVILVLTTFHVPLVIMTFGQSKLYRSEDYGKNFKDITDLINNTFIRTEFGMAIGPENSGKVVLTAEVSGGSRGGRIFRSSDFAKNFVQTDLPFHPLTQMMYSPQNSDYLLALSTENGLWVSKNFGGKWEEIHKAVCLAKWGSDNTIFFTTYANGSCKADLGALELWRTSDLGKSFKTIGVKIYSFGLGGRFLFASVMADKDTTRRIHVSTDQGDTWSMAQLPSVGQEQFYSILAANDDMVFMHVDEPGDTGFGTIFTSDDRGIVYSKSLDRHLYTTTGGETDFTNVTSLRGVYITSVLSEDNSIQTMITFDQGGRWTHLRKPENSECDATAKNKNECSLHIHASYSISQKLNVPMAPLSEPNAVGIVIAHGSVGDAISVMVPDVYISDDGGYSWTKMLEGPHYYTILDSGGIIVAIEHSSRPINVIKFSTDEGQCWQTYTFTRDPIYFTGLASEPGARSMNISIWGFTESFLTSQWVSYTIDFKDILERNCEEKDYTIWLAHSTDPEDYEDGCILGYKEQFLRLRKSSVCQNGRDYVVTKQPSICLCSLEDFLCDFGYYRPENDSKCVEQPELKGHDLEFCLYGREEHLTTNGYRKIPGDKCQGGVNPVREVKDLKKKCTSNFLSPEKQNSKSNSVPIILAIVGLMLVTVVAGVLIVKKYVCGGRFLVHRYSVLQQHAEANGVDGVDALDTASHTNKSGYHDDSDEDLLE

C=C1CN(S(=O)(=O)c2ccc(C)cc2)CCCN(Cc2ccccc2)CCCN(S(=O)(=O)c2ccc(C)cc2)C1
IC50 [1]: 210 nM | IC50 (Sortilin): 380 nM

Reference: ChEMBL document CHEMBL4627347, “The signal peptide as a new target for drug design” (Bioorg Med Chem Lett, 2020)
